According to patent publication EP3641564B1, “TASTE MODULATING FLAVORING SUBSTANCES” (Symrise AG, priority 2017, dated 2018):

How the values were obtained:
[1] = Sensory panel rating of bitterness reduction of a theobromine solution; assay type: in vivo
Text: (§1) Um die Reduzierung (d.h. die Maskierung oder Verminderung) des Bitter-Eindrucks in einer Probe zu quantifizieren, wurde die Bitterkeit einer Lösung enthaltend 500 ppm Coffein oder 300 ppm Theobromin oder 100 ppm Naringin von einer Expertengruppe jeweils mit einer Probe verglichen, die 500 ppm Coffein oder 300 ppm Theobromin oder 100 ppm Naringin und zusätzlich die jeweils angegebene Menge einer (hinsichtlich der Fähigkeit zur Bitter-Reduzierung) zu beurteilenden Substanz enthielt (Einstufung: 0 [nicht bitter] bis 100 [extrem bitter]). Für die Auswertung, d.h. die Berechnung der Reduktion (in %) des Bittereindrucks wurden jeweils die Durchschnittswerte der Einschätzungen der Expertengruppe verwendet. Die Ergebnisse sind in Tabelle 1 zusammengefasst: Tabelle 1: Bitterreduzierung einer Bitterstofflösung

[2] = Sensory panel rating of bitterness reduction of a caffeine solution; assay type: in vivo; conditions: for Bitterness rating with test substance (0-100 scale): expert panel mean, rating 0 [nicht bitter] to 100 [extrem bitter]; for % Reduktion des Bitter-Eindrucks (Signifikanz): 500 ppm Coffein, calculated from panel means versus solution without test substance
Text: as §1

[3] = 10 ppm test substance in 500 ppm Coffein solution

COc1ccc(C(O)Cc2cccc(O)c2C(=O)O)cc1O (single isomer, unassigned) [Substanz (3), 2-Hydroxy-6-[2-hydroxy-2-(3-hydroxy-4-methoxyphenyl)ethyl]benzoesäure]
Bitter-Eindruck (0-100) mit Testsubstanz ([1]; 25 ppm test substance in 300 ppm Theobromin solution, expert panel mean, rating 0 [nicht bitter] to 100 [extrem bitter]): 39.76 ± 20.91
% Reduktion des Bitter-Eindrucks (Signifikanz) ([1]; 25 ppm test substance, 300 ppm Theobromin, calculated from panel means versus solution without test substance): 16.5 % (p = 0.21)
Bitterness rating with test substance (0-100 scale) [2, 3]: 41.25 + 21.83
% Reduktion des Bitter-Eindrucks (Signifikanz) ([2]; 10 ppm test substance): 14.0 % (p = 0.29)
Bitterness rating with test substance (0-100 scale) ([2]; 25 ppm test substance in 500 ppm Coffein solution): 38.85 + 19.19
% Reduktion des Bitter-Eindrucks (Signifikanz) ([2]; 25 ppm test substance): 26.5 % (p < 0.05)

COc1ccc(/C=C/c2cccc(O)c2C(=O)O)cc1O [Substanz (6), 2-Hydroxy-6-[(E)-2-(3-hydroxy-4-methoxyphenyl)vinyl]benzoesäure]
Bitterness rating with test substance (0-100 scale) [2, 3]: 37.50 ± 18.84
% Reduktion des Bitter-Eindrucks (Signifikanz) ([2]; 10 ppm test substance): 18.3 % (p = 0.15)
